Consider one molecule from patent publication US11298318B2, “One-step method for production of ultra-small lipid structures” (FOUNTAIN TECHNOLOGIES INTERNATIONAL, LLC, priority 2015, dated 2022).

This data set can be described thus: Pharmacokinetics of EGCG after oral gavage to rats. The class given is in vivo. Particulars: 100 mg/kg. As for the experimental part: Groups of 10 200-g male rats were administered EGCG by oral gavage, in the form of the USLS prepared as in Example 3 (2.1 ml; 100 mg/kg body weight) or as an identical preparation of EGCG without USLS. Blood samples were collected at 5, 10, 30, 60, 120, and 480 minutes post administration. […] Within 5 minutes after oral administration, the USLS-sequestered compound produced a plasma concentration of 600 ng/ml and a peak plasma concentration of 605 ng/ml at 10 minutes post administration. The EGCG administered without sequestration in USLS produced a peak plasma concentration of only 150 ng/ml at 5 minutes post administration.
The pharmacokinetic parameters Cmax (maximum serum concentration), Tmax (time maximum serum concentration is reached), AUC (area under the curve), and Relative Bioavailability were determined from the plasma data and are presented in Table 1, below.

Take `O=C(O[C@@H]1Cc2c(O)cc(O)cc2O[C@@H]1c1cc(O)c(O)c(O)c1)c1cc(O)c(O)c(O)c1` [EGCG control, Epigallocatechin gallate]: the “time of peak plasma concentration post administration” value was found to be 5 min. Besides, the “peak plasma concentration of EGCG” value (FIG. 4) was 150 ng/mL. In addition, under “Table 1”, the “AUC (0-240 min)” value is recorded as 14,261, the “Cmax (maximum serum concentration)” value is listed as 116.57 and the “Tmax (time maximum serum concentration is reached)” value is 5.
